In ChEMBL document CHEMBL5537193, “Multitargeting HDAC Inhibitors Containing a RAS/RAF Protein Interfering Unit” (J Med Chem, 2024):
Activity calls are given as the source filed them. No cut-off for these calls is given here.

How the values were obtained:
[1] = tested on: HT-29; experiment: Cell cycle arrest in human HT-29 cells assessed as accumulation of cells at G2-M phase at 2 uM incubated for 24 hrs by PI/RNase staining based flow cytometric analysis; type: functional
[2] = tested on: PANC-1; experiment: Induction of apoptosis in human PANC-1 cells incubated for 24 hrs by flow cytometric analysis; type: functional, cell-based; details: dose 1-4 µM
[3] = tested on: HT-29; experiment: Antitumor activity against human HT-29 cells xenografted in BALB/c nude mouse assessed as tumor growth inhibition at 15 mg/kg, ip administered once a day for 24 days relative to control; type: functional; details: HT-29, 576 h, time 24 day, read-out: TGI
[4] = Elimination rate constant in Sprague-Dawley rat at 15 mg/kg, ip measured after 24 hrs by LC-MS/MS analysis; type: ADME, organism-based; details: in vivo
[5] = tested on: HT-29; experiment: Effect on Histone H3 expression in human HT-29 cells at 2 uM incubated for 24 hrs by Western blot analysis; type: functional, cell-based
[6] = tested on: PANC-1; experiment: Induction of apoptosis in human PANC-1 cells assessed as apoptotic cells at 2 uM incubated for 24 hrs by flow cytometric analysis relative to control; type: functional
[7] = tested on: HT-29; experiment: Effect on RAS expression in tumor of BALB/c mouse xenografted with human HT-29 cells at 7.5 to 15 mg/kg, ip administered once every 2 days for 12 times and measured after 24 days by Western blot analysis; type: functional, organism-based; details: Neoplasm, dose 7.5-15 mg/kg, time 24.0 day
[8] = AUC (0 to t) in Sprague-Dawley rat at 15 mg/kg, ip measured after 24 hrs by LC-MS/MS analysis; type: ADME, organism-based; details: in vivo
[9] = AUC (0 to infinity) in Sprague-Dawley rat at 15 mg/kg, ip measured after 24 hrs by LC-MS/MS analysis; type: ADME, organism-based; details: in vivo
[10] = tested on: PANC-1; experiment: Inhibition of MAPK signaling pathway in human PANC-1 cells assessed as inhibition of ERK1/2 phosphorylation at 2 uM incubated for 24 hrs by Western blot analysis; type: cell-based
[11] = tested on: HT-29; experiment: Effect on MEK expression in tumor of BALB/c mouse xenografted with human HT-29 cells at 7.5 to 15 mg/kg, ip administered once every 2 days for 12 times and measured after 24 days by Western blot analysis; type: functional, organism-based; details: Neoplasm, dose 7.5-15 mg/kg, time 24.0 day
[12] = Half-life in Sprague-Dawley rat at 15 mg/kg, ip measured after 24 hrs by LC-MS/MS analysis; type: ADME, organism-based; details: in vivo
[13] = Toxicity in BALB/c nude mouse xenografted with human HT-29 cells assessed as change in lung histopathology at 10 to 15 mg/kg, ip administered once daily for 24 days by H&E staining based analysis; type: organism-based; details: in vivo, 576 h, dose 10-15 mg/kg, time 24 day
[14] = tested on: PANC-1; experiment: Inhibition of MAPK signaling pathway in human PANC-1 cells assessed as inhibition of MEK phosphorylation at 2 uM incubated for 24 hrs by Western blot analysis; type: cell-based
[15] = tested on: HT-29; experiment: Effect on ERK1/2 protein expression in human HT-29 cells at 2 uM incubated for 24 hrs by Western blot analysis; type: functional, cell-based
[16] = tested on: HT-29; experiment: Effect on RAS protein expression in human HT-29 cells at 2 uM incubated for 24 hrs by Western blot analysis; type: functional, cell-based
[17] = Metabolic stability in mouse liver microsomes assessed as intrinsic clearance at 1 uM measured upto 40 mins by LC-MS/MS analysis; type: ADME, Microsome; details: read-out: CLH
[18] = Toxicity in BALB/c nude mouse xenografted with human HT-29 cells assessed as change in body weight at 7.5 to 15 mg/kg, ip administered once daily for 24 days; type: organism-based; details: in vivo, 576 h, dose 7.5-15 mg/kg, time 24 day
[19] = tested on: HT-29; experiment: Antitumor activity against human HT-29 cells xenografted in BALB/c nude mouse assessed as tumor growth inhibition at 7.5 mg/kg, ip administered once a day for 24 days relative to control; type: functional; details: HT-29, 576 h, time 24 day, read-out: TGI
[20] = Toxicity in BALB/c nude mouse xenografted with human HT-29 cells assessed as change in heart histopathology at 10 to 15 mg/kg, ip administered once daily for 24 days by H&E staining based analysis; type: organism-based; details: in vivo, 576 h, dose 10-15 mg/kg, time 24 day
[21] = MRT (0 to t) in Sprague-Dawley rat at 15 mg/kg, ip measured after 24 hrs by LC-MS/MS analysis; type: ADME, organism-based; details: in vivo
[22] = Metabolic stability in rat liver microsomes assessed as intrinsic clearance at 1 uM measured upto 40 mins by LC-MS/MS analysis; type: ADME, Microsome; details: read-out: CLH
[23] = tested on: HepG2; experiment: cells; details: Homo sapiens, HepG2, 72 h
Description: Cytotoxicity against human HepG2 cells assessed as inhibition of cell growth incubated for 72 hrs by MTT assay

[24] = tested on: SGC-7901; experiment: cells; details: Homo sapiens, SGC-7901, 72 h
Description: Cytotoxicity against human SGC-7901 cells assessed as inhibition of cell growth incubated for 72 hrs by MTT assay

[25] = Toxicity in BALB/c nude mouse xenografted with human HT-29 cells assessed as change in body weight at 7.5 to 15 mg/kg, ip administered once every 2 days for 12 times for 24 days; type: organism-based; details: in vivo, 576 h, dose 7.5-15 mg/kg, time 24 day
[26] = Metabolic stability in human liver microsomes assessed as half-life at 1 uM measured upto 40 mins by LC-MS/MS analysis; type: ADME, Microsome
[27] = tested on: PANC-1; experiment: Induction of apoptosis in human PANC-1 cells assessed as increase in Cytochrome C expression level at 2 uM incubated for 24 hrs by Western blot analysis; type: functional, cell-based
[28] = tested on: MCF7; experiment: cells; details: Homo sapiens, MCF7, 72 h
Description: Cytotoxicity against human MCF7 cells assessed as inhibition of cell growth incubated for 72 hrs by MTT assay

[29] = tested on: Mus musculus; experiment: In vivo inhibition of MAPK signaling pathway in BALB/c mouse xenografted with human HT-29 cells assessed as inhibition of MEK phosphorylation administered intraperitoneally once every 2 days for 12 times and measured after 24 days by Western blot analysis; type: functional; details: dose 7.5-15 mg/kg, route ip, time 24.0 day
[30] = tested on: HT-29; experiment: Induction of apoptosis in human HT-29 cells incubated for 24 hrs by flow cytometric analysis; type: functional, cell-based; details: dose 1-4 µM
[31] = tested on: HT-29; experiment: Antitumor activity against human HT-29 xenografted in BALB/c nude mouse assessed as tumor growth inhibition at 7.5 mg/kg, ip administered once every 2 days for 12 times for 24 days relative to control; type: functional; details: HT-29, 576 h, time 24 day, read-out: TGI
[32] = Toxicity in BALB/c nude mouse xenografted with human HT-29 cells assessed as change in liver histopathology at 10 to 15 mg/kg, ip administered once daily for 24 days by H&E staining based analysis; type: organism-based; details: in vivo, 576 h, dose 10-15 mg/kg, time 24 day
[33] = Metabolic stability in human liver microsomes assessed as intrinsic clearance at 1 uM measured upto 40 mins by LC-MS/MS analysis; type: ADME, Microsome; details: read-out: CLH
[34] = Toxicity in BALB/c nude mouse xenografted with human HT-29 cells assessed as change in kidney histopathology at 10 to 15 mg/kg, ip administered once daily for 24 days by H&E staining based analysis; type: organism-based; details: in vivo, 576 h, dose 10-15 mg/kg, time 24 day
[35] = tested on: HT-29; experiment: Effect on ERK1/2 expression in tumor of BALB/c mouse xenografted with human HT-29 cells at 7.5 to 15 mg/kg, ip administered once every 2 days for 12 times and measured after 24 days by Western blot analysis; type: functional, organism-based; details: Neoplasm, dose 7.5-15 mg/kg, time 24.0 day
[36] = tested on: HT-29; experiment: Inhibition of MAPK signaling pathway in human HT-29 cells assessed as inhibition of ERK1/2 phosphorylation at 2 uM incubated for 24 hrs by Western blot analysis; type: cell-based
[37] = tested on: Mus musculus; experiment: In vivo inhibition of MAPK signaling pathway in BALB/c mouse xenografted with human HT-29 cells assessed as inhibition of c-RAF phosphorylation at Ser338 residue administered intraperitoneally once every 2 days for 12 times and measured after 24 days by Western blot analysis; type: functional; details: dose 7.5-15 mg/kg, route ip, time 24.0 day

**Q.** What does the source list for `COc1cc(OC)c(/C=C/S(=O)(=O)Cc2ccc(OC)c(NCC(=O)NO)c2)c(OC)c1`?
**A.** Activity [1]: Active; Activity [2]: Dose-Dependent Effect; inhibition in vivo at 15 mg/kg [3]: 86.7%; k el at 24 h [4]: 0.000252 s⁻¹; Activity [5]: inactive; Activity [6]: 57.4%; Activity [7]: inactive; AUC(0-t) at 24 h [8]: 5190 ng·h/mL; AUC(0-inf) [9]: 5200 ng·h/mL; inhibition [10]: Active; Activity [11]: inactive; half-life [12]: 0.772 h; Activity [13]: Non-Toxic; inhibition [14]: Active; Activity [15]: inactive; Activity [16]: inactive; CLint scaled at 1 µM [17]: 191 mL/min/kg; Activity [18]: Non-Toxic; inhibition in vivo at 7.5 mg/kg [19]: 70.1%; Activity [20]: Non-Toxic; MRT last at 24 h [21]: 1.34 h; CLint scaled at 1 µM [22]: 450 mL/min/kg; IC50 [23]: 990 nM; IC50 [24]: 170 nM; Activity [25]: Non-Toxic; half-life at 1 µM [26]: 2.07 h; Activity [27]: Active; IC50 [28]: 240 nM; inhibition [29]: Dose-Dependent Effect; Activity [30]: Dose-Dependent Effect; inhibition in vivo at 7.5 mg/kg [31]: 64.3%; Activity [32]: Non-Toxic; CLint scaled at 1 µM [33]: 14 mL/min/kg; Activity [34]: Non-Toxic; Activity [35]: inactive; inhibition [36]: Active; inhibition [37]: Dose-Dependent Effect
